The record followed here is patent US10577329B2, “Fused-bicyclic aryl quinolinone derivatives as mutant-isocitrate dehydrogenase inhibitors” (FORMA Therapeutics, Inc., priority 2015, dated 2020).

For assay [1], the target named is IDH1-R132H recombinant protein (Homo sapiens, UniProt O75874, R132H). Nature of the assay: IDH1-R132H enzymatic assay (NADPH consumption, diaphorase/resazurin readout). It counts as biochemical. The following applies: 30 nM IDH1-R132H, inhibition of NADPH consumption; read-out: Enzyme IDH1 R132H IC50. The procedure:
(§1) Example 34—IDH1-R132H and IDH1-R132C Enzymatic Assay
(§2) Assays were performed in a 384-well black plate. An aliquot of 250 nL of compound was incubated with 10 μL of 30 nM IDH1-R132H or 10 nM IDH1-R132C recombinant protein in assay buffer (50 mM Tris pH=7.5, 150 mM NaCl, 5 mM MgCl2, 0.1% (w/v) Bovine Serum Albumin, and 0.01% Triton X-100) in each well at 25° C. for 15 minutes. After the plate was centrifuged briefly, an aliquot of 10 μL of 2 mM α-ketoglutarate and 20 μM NADPH solution prepared in assay buffer was then added to each well and the reaction was maintained at 25° C. for 45 minutes. An aliquot of 10 μL of diaphorase solution (0.15 U/mL diaphorase and 30 μM Resazurin in assay buffer) was added to each well. The plate was maintained at 25° C. for 15 minutes and then read on a plate reader with excitation and emission wavelengths at 535 nm and 590 nm, respectively. The IC50 of a given compound was calculated by fitting the dose response curve of inhibition of NADPH consumption at a given concentration with the four parameter logistic equation.

Assay [2] concerns HCT116 isogenic IDH1-R132H mutant cells. Put plainly: Cellular 2-HG assay using HCT116 mutant IDH1-R132H cells. It counts as cell-based. The following applies: Homo sapiens, read-out: HCT116 IDH1 R132H IC50. The procedure:
(§3) HCT116 isogenic IDH1-R132H and IDH1-R132C mutant cells were cultured in growth media (McCoy's 5A, 10% fetal bovine serum, 1× antibiotic-antimycotic solution and 0.3 mg/mL G418) in 5% CO2 in an incubator at 37° C. To prepare the assay, cells were trypsinized and resuspended in assay media (McCoy's 5A with no L-glutamine, 10% fetal bovine serum, 1× antibiotic-antimycotic solution and 0.3 mg/mL G418). An aliquot of 10,000 cells/100 μL was transferred to each well of a clear 96-well tissue culture plate. The cells were incubated in 5% CO2 at 37° C. in an incubator overnight to allow for proper cell attachment. An aliquot of 50 μL of compound containing assay media were then added to each well and the assay plate was kept in 5% CO2 at 37° C. in an incubator for 24 hours. The media was then removed from each well and 150 μL of a methanol/water mixture (80/20 v/v) was added to each well. The plates were kept at −80° C. freezer overnight to allow for complete cell lysis. An aliquot of 125 μL of extracted supernatant was analyzed by RapidFire high-throughout-mass spectrometry (Agilent) to determine the cellular 2-HG level. The IC50 of a given compound was calculated by fitting the dose response curve of cellular 2-HG inhibition at a given concentration with the four parameter logistic equation

Assay [3] concerns the target IDH1-R132C recombinant protein (Homo sapiens, UniProt O75874, R132C). Nature of the assay: IDH1-R132C enzymatic assay (NADPH consumption, diaphorase/resazurin readout). It counts as biochemical. Conditions: 10 nM IDH1-R132C, inhibition of NADPH consumption; read-out: Enzyme IDH1 R132C IC50. How it is done:
as §1, §2
(In general: The colour change of resazurin is a common sign of viable cells or microbes.)

Assay [4] concerns HCT116 isogenic IDH1-R132C mutant cells. Nature of the assay: Cellular 2-HG assay using HCT116 mutant IDH1-R132C cells. It counts as cell-based. The following applies: Homo sapiens, read-out: HCT116 IDH1 R132C IC50. How it is done:
as §3

[5] abbreviates: HCT-116, cellular 2-HG inhibition, 24 hours, RapidFire mass spectrometry.

Where two headings read alike, the source gives them in different places.

Sequence of IDH1-R132C recombinant protein (O75874 whole entry R132C): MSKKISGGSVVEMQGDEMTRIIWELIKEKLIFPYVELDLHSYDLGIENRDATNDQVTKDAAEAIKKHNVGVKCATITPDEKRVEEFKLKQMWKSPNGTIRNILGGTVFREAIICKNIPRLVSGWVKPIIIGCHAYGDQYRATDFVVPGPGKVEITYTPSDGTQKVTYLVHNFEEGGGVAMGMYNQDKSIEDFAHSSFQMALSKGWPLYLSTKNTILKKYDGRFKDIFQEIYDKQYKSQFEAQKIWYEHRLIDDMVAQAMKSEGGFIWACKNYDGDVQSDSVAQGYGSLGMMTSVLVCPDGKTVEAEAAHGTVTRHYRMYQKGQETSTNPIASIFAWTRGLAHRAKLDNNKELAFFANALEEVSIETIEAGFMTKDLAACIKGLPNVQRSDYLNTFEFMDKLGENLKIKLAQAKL
Sequence of IDH1-R132H recombinant protein (O75874 whole entry R132H): as the sequence (O75874 whole entry R132C) above, with C132H counted along it

By IC50 is commonly meant the midpoint of a concentration-inhibition curve. `COc1cc2[nH]c(=O)c(C(C)Nc3ncc4c(n3)N(C)C(=O)OC4)cc2cc1Cl` (racemic) [Compound I-50, 6-chloro-7-methoxy-3-[1-({1-methyl-2-oxo-1H,2H,4H-pyrimido[4,5-d][1,3]oxazin-7-yl}amino)ethyl]-1,2-dihydroquinolin-2-one]: the IC50 in assay [1] was less than 100 nM; in assay [2] (HCT-116, 24 h), less than 100 nM; in assay [3], less than 100 nM; in assay [4] (HCT-116, 24 h) it was less than 100 nM.
As to `C[C@H](Nc1ncc2cn[nH]c2n1)c1cc2cc(Cl)ccc2[nH]c1=O` [Compound I-45, 6-chloro-3-[(1S)-1-({1H-pyrazolo[3,4-d]pyrimidin-6-yl}amino)ethyl]-1,2-dihydroquinolin-2-one], the 50% inhibitory concentration (IC50) in assay [2] (HCT-116, 24 h) was 100 to 1000 nM; in assay [4] (HCT-116, 24 h), 100 to 1000 nM.
In the case of `C[C@H](Nc1ncc2c(n1)N(C)C(=O)OC2)c1cc2cc(Cl)ccc2[nH]c1=O` [Compound I-47, 6-chloro-3-[(1S)-1-({1-methyl-2-oxo-1H,2H,4H-pyrimido[4,5-d][1,3]oxazin-7-yl}amino)ethyl]-1,2-dihydroquinolin-2-one], the half-inhibitory concentration (IC50) in assay [2] (setting [5]) and in assay [4] (setting [5]) was less than 100 nM in each case.
Turning to `C[C@H](Nc1ncc2c(n1)N(C)C(=O)OC2)c1cc2cc(Cl)c(OCc3ccccn3)cc2[nH]c1=O` [Compound I-48, 6-chloro-3-[(1S)-1-({1-methyl-2-oxo-1H,2H,4H-pyrimido[4,5-d][1,3]oxazin-7-yl}amino)ethyl]-7-(pyridin-2-ylmethoxy)-1,2-dihydroquinolin-2-one], the IC50 in assay [2] (setting [5]) and in assay [4] (setting [5]) was less than 100 nM each time.
Turning to `C[C@H](Nc1ncc2c(n1)NC(=O)OC2)c1cc2cc(Cl)ccc2[nH]c1=O` [Compound I-49, 6-chloro-3-[(1S)-1-({2-oxo-1H,2H,4H-pyrimido[4,5-d][1,3]oxazin-7-yl}amino)ethyl]-1,2-dihydroquinolin-2-one], the values for the half-maximal inhibitory concentration (IC50) in assay [2] (setting [5]) and in assay [4] (setting [5]) were less than 100 nM and 100 to 1000 nM, respectively.
For `COc1cc2[nH]c(=O)c([C@H](C)Nc3ncc4c(n3)N(C)C(=O)OC4)cc2cc1Cl` [Compound I-51, 6-chloro-7-methoxy-3-[(1S)-1-({1-methyl-2-oxo-1H,2H,4H-pyrimido[4,5-d][1,3]oxazin-7-yl}amino)ethyl]-1,2-dihydroquinolin-2-one], the IC50 in assay [2] (HCT-116, 24 h) was less than 100 nM; in assay [4] (HCT-116, 24 h) it was less than 100 nM.
Take `CC(C)Cn1c(=O)oc2cnc(N[C@@H](C)c3cc4cc(Cl)ccc4[nH]c3=O)nc21` [Compound I-55, 6-chloro-3-[(1S)-1-{[3-(2-methylpropyl)-2-oxo-2H,3H-[1,3]oxazolo[4,5-d]pyrimidin-5-yl]amino}ethyl]-1,2-dihydroquinolin-2-one]: the IC50 in assay [2] (setting [5]) lay within 100 to 1000 nM; in assay [4] (setting [5]), 1000 to 10000 nM.
Turning to `C[C@H](Nc1ncc2oc(=O)[nH]c2n1)c1cc2cc(Cl)ccc2[nH]c1=O` [Compound I-56, 6-chloro-3-[(1S)-1-({2-oxo-2H,3H-[1,3]oxazolo[4,5-d]pyrimidin-5-yl}amino)ethyl]-1,2-dihydroquinolin-2-one], the IC50 is 1000 to 10000 nM in assay [2] (HCT-116, 24 h) and greater than 10000 nM in assay [4] (HCT-116, 24 h).
The like results for `C[C@H](Nc1ncc2oc(=O)n(C)c2n1)c1cc2cc(Cl)ccc2[nH]c1=O` [Compound I-57, 6-chloro-3-[(1S)-1-({3-methyl-2-oxo-2H,3H-[1,3]oxazolo[4,5-d]pyrimidin-5-yl}amino)ethyl]-1,2-dihydroquinolin-2-one] were, in that order, 100 to 1000 nM and 100 to 1000 nM.
As for `C[C@H](Nc1ncc2[nH]c(=O)n(C)c2n1)c1cc2cc(Cl)ccc2[nH]c1=O` [Compound I-58, 6-chloro-3-[(1S)-1-[(9-methyl-8-oxo-8,9-dihydro-7H-purin-2-yl)amino]ethyl]-1,2-dihydroquinolin-2-one], the IC50 was in the range of 100 to 1000 nM in assay [2] (HCT-116, 24 h) and 1000 to 10000 nM in assay [4] (HCT-116, 24 h).
Turning to `C[C@H](Nc1ncc2c(n1)NC(=O)C2)c1cc2cc(Cl)ccc2[nH]c1=O` [Compound I-60, 6-chloro-3-[(1S)-1-({6-oxo-5H,6H,7H-pyrrolo[2,3-d]pyrimidin-2-yl}amino)ethyl]-1,2-dihydroquinolin-2-one], the IC50 was in the range of 100 to 1000 nM in assay [2] (setting [5]) and 1000 to 10000 nM in assay [4] (setting [5]).
In the case of `C[C@H](Nc1ncc2c(n1)N(C)C(=O)C2)c1cc2cc(Cl)ccc2[nH]c1=O` [Compound I-61, 6-chloro-3-[(1S)-1-({7-methyl-6-oxo-5H,6H,7H-pyrrolo[2,3-d]pyrimidin-2-yl}amino)ethyl]-1,2-dihydroquinolin-2-one], the concentration for half-maximal inhibition (IC50) in assay [2] (setting [5]) and in assay [4] (setting [5]) was 100 to 1000 nM each time.
